From US8906868B2, “Aminoglycoside derivatives” (Rempex Pharmaceuticals, Inc., priority 2010, dated 2014)
Converted amounts (≈) assume the structure as drawn. Like-named read-outs stand apart in the source and are kept apart here.

How the values were obtained:
[1] = tested on: PAM3072 aac(6′)-II; test: microbe, parasite or virus in culture; assay type: cell-based, Pseudomonas aeruginosa; conditions: for MIC: Pseudomonas aeruginosa, Table 5, read-out: Compound MIC on Bacterial Strains: Pseudomonas aeruginosa PAM3072 aac(6′)-II
Experimental: (§1) To compare microbiological activity of the test compounds, minimum inhibitory concentrations (MIC.s) were determined. Antibiotic MICs were obtained using the broth microdilution method according to Clinical and Laboratory Standards Institute (CLSI) approved guidelines (Methods for dilution antimicrobial susceptibility tests for bacteria that grow aerobically; approved standard—7th ed. CLSI document M7-A7. Clinical and Laboratory Standards Institute, Wayne, Pa., incorporated herein by reference in its entirety). Antibiotics were dissolved as specified by CLSI (Performance standards for antimicrobial susceptibility testing; Seventeenth informational supplement. CLSI document M100-S17. Clinical and Laboratory Standards Institute, Wayne, Pa., incorporated herein by reference in its entirety), and were serially diluted 2-fold in cation adjusted Mueller Hinton Broth (CaMHB) at 2× concentration. Bacterial inoculums were prepared in CaMHB by suspension of a colony from an agar plate that was prepared the previous day to obtain a final concentration of 5×10^5CFU/ml. The plates were incubated for 18 hours at 35° C. […] MIC.s were determined by reading the turbidity of plate wells using a SpectraMax Plus384 plate reader (Molecular Devices, Sunnyvale, Calif., USA) at 600 nm and were confirmed by visual inspection.

[2] = tested on: PAM3073 aac(6′)-I; test: microbe, parasite or virus in culture; assay type: cell-based, Pseudomonas aeruginosa; conditions: for MIC: Pseudomonas aeruginosa, Table 5, read-out: Compound MIC on Bacterial Strains: Pseudomonas aeruginosa PAM3073 aac(6′)-I
Experimental: as §1

[3] = tested on: Staphylococcus aureus (ATCC 29213); test: MIC, broth microdilution; conditions: for MIC: Staphylococcus aureus
[4] = tested on: ECM6010 ant(2″)-I; test: microbe, parasite or virus in culture; assay type: cell-based, Escherichia coli; conditions: for MIC: Escherichia coli, read-out: Compound MIC on Bacterial Strains: ECM6010 ant(2″)-I
Experimental: as §1
(§2) Activity of the test compounds was determined using QC strains and strains with known aminoglycoside resistance mechanisms (TABLE 3). This specific panel contained strains expressing enzymes that covalently modify N2″, N3 and N3′ positions.

[5] = tested on: ECM6009 aac(3)-II; test: microbe, parasite or virus in culture; assay type: cell-based, Escherichia coli; conditions: for MIC: Escherichia coli, read-out: Compound MIC on Bacterial Strains: ECM6009 aac(3)-II
Experimental: as §1, §2

[6] = tested on: ECM6011 aph(3′)-I; test: microbe, parasite or virus in culture; assay type: cell-based, Escherichia coli; conditions: for MIC: Escherichia coli, read-out: Compound MIC on Bacterial Strains: ECM6011 aph(3′)-I
Experimental: as §1, §2

[7] = tested on: ECM6006 aph(3′)-III; test: microbe, parasite or virus in culture; assay type: cell-based, Escherichia coli; conditions: for MIC: Escherichia coli, read-out: Compound MIC on Bacterial Strains: ECM6006 aph(3′)-III
Experimental: as §1, §2

[8] = tested on: Klebsiella pneumonia (ATCC 43816); test: MIC, broth microdilution; conditions: Klebsiella pneumoniae, ATCC43816, read-out: Compound MIC on Bacterial Strains: K. pneumonia ATCC 43816
[9] = tested on: ECM6003 rmtB; test: microbe, parasite or virus in culture; assay type: cell-based, Escherichia coli; conditions: for MIC: Escherichia coli, Table 3, read-out: Compound MIC on Bacterial Strains: ECM6003 rmtB
Experimental: as §1, §2
The panel also contained a strain expressing ribosomal RNA methylase, RmtB.

[10] = tested on: Escherichia coli (ATCC 25922); test: MIC, broth microdilution; conditions: for MIC: Escherichia coli
[11] = tested on: Pseudomonas aeruginosa (ATCC 27853); test: MIC, broth microdilution; conditions: for MIC: Pseudomonas aeruginosa
[12] = tested on: EC1002 aph(3′)-IV; test: organism not typed; assay type: cell-based; conditions: for MIC: read-out: Compound MIC on Bacterial Strains: EC1002 aph(3′)-IV
Experimental: as §1, §2

[13] = tested on: Acinetobacter baumannii (ATCC 19606); test: MIC, broth microdilution; conditions: Acinetobacter baumannii, ATCC19606, read-out: Compound MIC on Bacterial Strains: A. baumannii ATCC 19606
[14] = tested on: ACM1006 acc(6′)-Ib; test: microbe, parasite or virus in culture; assay type: cell-based, Acinetobacter baumannii; conditions: for MIC: Acinetobacter baumannii, Table 4, read-out: Compound MIC on Bacterial Strains: Acinetobacter baumannii ACM1006 acc(6′)-Ib
Experimental: as §1

[15] = tested on: ACM1005 ATCC 19004; test: MIC, broth microdilution; assay type: cell-based, Acinetobacter baumannii; conditions: for MIC: Acinetobacter baumannii, ATCC19004, Table 4, read-out: Compound MIC on Bacterial Strains: Acinetobacter baumannii ACM1005 ATCC 19004
Experimental: as §1

[16] = tested on: ECM6007 aac(6′) + aph(2″); test: microbe, parasite or virus in culture; assay type: cell-based, Escherichia coli; conditions: for MIC: Escherichia coli, 18 h, Table 4, read-out: Compound MIC on Bacterial Strains: Escherichia coli ECM6007 aac(6′) + aph(2″)
Experimental: as §1

[17] = tested on: EC1001 acc(6′)-Ib; test: microbe, parasite or virus in culture; assay type: cell-based, Escherichia coli; conditions: for MIC: Escherichia coli, Table 4, read-out: Compound MIC on Bacterial Strains: Escherichia coli EC1001 acc(6′)-Ib
Experimental: as §1

[18] = tested on: Sa 287 aac(6′) + aph(2″); test: microbe, parasite or virus in culture; assay type: cell-based, Staphylococcus aureus; conditions: for MIC: Staphylococcus aureus, 18 h, Table 5, read-out: Compound MIC on Bacterial Strains: Staphylococcus aureus Sa 287 aac(6′) + aph(2″)
Experimental: as §1

[19] = ATCC29213, read-out: Compound MIC on Bacterial Strains: S. aureus ATCC 29213, QC strain, Table 2
[20] = ATCC29213, read-out: Compound MIC on Bacterial Strains: Staphylococcus aureus SAM1000 ATCC 29213, Table 5
[21] = ATCC25922, read-out: Compound MIC on Bacterial Strains: E. coli ATCC 25922
[22] = ATCC25922, read-out: Compound MIC on Bacterial Strains: ECM6000 ATCC 25922
[23] = ATCC25922, read-out: Compound MIC on Bacterial Strains: Escherichia coli ECM6000 ATCC 25922
[24] = ATCC27853, read-out: Compound MIC on Bacterial Strains: P. aeruginosa ATCC 27853
[25] = ATCC27853, read-out: Compound MIC on Bacterial Strains: Pseudomonas aeruginosa PAM3034 ATCC 27853

Row | Compound | MIC [1] [µg/mL] | MIC [2] [µg/mL] | MIC [3, 19] [µg/mL] | MIC [3, 20] [µg/mL] | MIC [4] [µg/mL] | MIC [5] [µg/mL] | MIC [6] [µg/mL] | MIC [7] [µg/mL] | MIC [8] [µg/mL] | MIC [9] [µg/mL] | MIC [10, 21] [µg/mL] | MIC [10, 22] [µg/mL] | MIC [10, 23] [µg/mL] | MIC [11, 24] [µg/mL] | MIC [11, 25] [µg/mL] | MIC [12] [µg/mL] | MIC [13] [µg/mL] | MIC [14] [µg/mL] | MIC [15] [µg/mL] | MIC [16] [µg/mL] | also measured
1 | CN[C@@H]1C(O)[C@@H](OC2C(O)C(O[C@H]3O[C@H](CN)CCC3N)[C@@H](N)C[C@H]2NC(=O)[C@@H](O)[C@@H](O)CN)OCC1(C)O (stereo partly drawn) [Compound 21, (2S,3R)-4-amino-N-((1R,2S,3S,4R,5S)-5-amino-4-((2R,3R,6S)-3-amino-6-(aminomethyl)tetrahydro-2H-pyran-2-vyloxy)-2-((2R,3R,4R,5R)-3,5-dihydroxy-5-methyl-4-(methylamino)tetrahydro-2H-pyran-2-yloxy)-3-hydroxycyclohexyl)-2,3-dihydroxybutanamide] | > 8 | 1 to 8 (≈ 1.76 to 14.1 µM) | < 1 | < 1 | < 1 | < 1 | 1 to 8 (≈ 1.76 to 14.1 µM) | 1 to 8 (≈ 1.76 to 14.1 µM) | < 1 | 1 to 8 (≈ 1.76 to 14.1 µM) | < 1 | 1 to 8 (≈ 1.76 to 14.1 µM) | 1 to 8 (≈ 1.76 to 14.1 µM) | < 1 | 1 to 8 (≈ 1.76 to 14.1 µM) | 1 to 8 (≈ 1.76 to 14.1 µM) | > 8 | 1 to 8 (≈ 1.76 to 14.1 µM) | 1 to 8 (≈ 1.76 to 14.1 µM) | < 1 | MIC [17]: > 8 µg/mL; MIC [18]: 1 to 8 µg/mL
2 | NC[C@H]1O[C@H](O[C@H]2[C@H](O)[C@@H](O[C@H]3O[C@H](CO)[C@@H](O)[C@H](N)[C@H]3O)[C@H](N)C[C@@H]2N)[C@H](N)C[C@@H]1O [Tobramycin, reference compound] | > 8 | > 8 | < 1 | < 1 | > 8 | > 8 | 1 to 8 (≈ 2.14 to 17.1 µM) | 1 to 8 (≈ 2.14 to 17.1 µM) | < 1 | > 8 | < 1 | < 1 | < 1 | < 1 | < 1 | < 1 | 1 to 8 (≈ 2.14 to 17.1 µM) | > 8 | < 1 | > 8 | MIC [17]: > 8 µg/mL; MIC [18]: > 8 µg/mL
3 | Gentamicin C1a [reference compound] | – | – | – | – | – | – | – | – | – | – | – | – | – | – | – | – | – | – | – | – | Compound MIC on Bacterial Strains: Pseudomonas aeruginosa PAM3072 aac(6′)-II [1]: C (key: A: MIC of 1 μg/ml or less; B: MIC of greater than 1 μg/ml to 8 μg/ml; MIC of greater than 8 μg/ml); Compound MIC on Bacterial Strains: Pseudomonas aeruginosa PAM3073 aac(6′)-I [2]: B (key: A: MIC of 1 μg/ml or less; B: MIC of greater than 1 μg/ml to 8 μg/ml; MIC of greater than 8 μg/ml); Compound MIC on Bacterial Strains: Staphylococcus aureus SAM1000 ATCC 29213 [3]: A (key: A: MIC of 1 μg/ml or less; B: MIC of greater than 1 μg/ml to 8 μg/ml; MIC of greater than 8 μg/ml); Compound MIC on Bacterial Strains: ECM6010 ant(2″)-I [4]: C (key: A: MIC of 1 μg/ml or less; B: MIC of greater than 1 μg/ml to 8 μg/ml; MIC of greater than 8 μg/ml); Compound MIC on Bacterial Strains: ECM6009 aac(3)-II [5]: C (key: A: MIC of 1 μg/ml or less; B: MIC of greater than 1 μg/ml to 8 μg/ml; MIC of greater than 8 μg/ml); Compound MIC on Bacterial Strains: ECM6011 aph(3′)-I [6]: B (key: A: MIC of 1 μg/ml or less; B: MIC of greater than 1 μg/ml to 8 μg/ml; MIC of greater than 8 μg/ml); Compound MIC on Bacterial Strains: ECM6006 aph(3′)-III [7]: B (key: A: MIC of 1 μg/ml or less; B: MIC of greater than 1 μg/ml to 8 μg/ml; MIC of greater than 8 μg/ml); Compound MIC on Bacterial Strains: ECM6003 rmtB [9]: C (key: A: MIC of 1 μg/ml or less; B: MIC of greater than 1 μg/ml to 8 μg/ml; MIC of greater than 8 μg/ml); Compound MIC on Bacterial Strains: ECM6000 ATCC 25922 [10]: A (key: A: MIC of 1 μg/ml or less; B: MIC of greater than 1 μg/ml to 8 μg/ml; MIC of greater than 8 μg/ml); Compound MIC on Bacterial Strains: Escherichia coli ECM6000 ATCC 25922 [10]: A (key: A: MIC of 1 μg/ml or less; B: MIC of greater than 1 μg/ml to 8 μg/ml; MIC of greater than 8 μg/ml); Compound MIC on Bacterial Strains: Pseudomonas aeruginosa PAM3034 ATCC 27853 [11]: A (key: A: MIC of 1 μg/ml or less; B: MIC of greater than 1 μg/ml to 8 μg/ml; MIC of greater than 8 μg/ml); Compound MIC on Bacterial Strains: EC1002 aph(3′)-IV [12]: A (key: A: MIC of 1 μg/ml or less; B: MIC of greater than 1 μg/ml to 8 μg/ml; MIC of greater than 8 μg/ml); Compound MIC on Bacterial Strains: Acinetobacter baumannii ACM1006 acc(6′)-Ib [14]: C (key: A: MIC of 1 μg/ml or less; B: MIC of greater than 1 μg/ml to 8 μg/ml; MIC of greater than 8 μg/ml); Compound MIC on Bacterial Strains: Acinetobacter baumannii ACM1005 ATCC 19004 [15]: A (key: A: MIC of 1 μg/ml or less; B: MIC of greater than 1 μg/ml to 8 μg/ml; MIC of greater than 8 μg/ml); Compound MIC on Bacterial Strains: Escherichia coli ECM6007 aac(6′) + aph(2″) [16]: B (key: A: MIC of 1 μg/ml or less; B: MIC of greater than 1 μg/ml to 8 μg/ml; MIC of greater than 8 μg/ml); Compound MIC on Bacterial Strains: Escherichia coli EC1001 acc(6′)-Ib [17]: C (key: A: MIC of 1 μg/ml or less; B: MIC of greater than 1 μg/ml to 8 μg/ml; MIC of greater than 8 μg/ml); Compound MIC on Bacterial Strains: Staphylococcus aureus Sa 287 aac(6′) + aph(2″) [18]: C (key: A: MIC of 1 μg/ml or less; B: MIC of greater than 1 μg/ml to 8 μg/ml; MIC of greater than 8 μg/ml)
